Data reported in publication PMC2010087, “Cytotoxic and clastogenic effects of soluble chromium compounds on mammalian cell cultures” (British Journal of Cancer, 1979).
Read-outs that look alike come from different tables or passages of the source.

Columns and labels:
CHO cell cultures [1] = assay type: cell-based, Chinese hamster
Method: (§1) MATERIALS AND METHODS Cells.-Cultures of the established pseudo- diploid BHK21 Syrian hamster fibroblast line, and of the established pseudodiploid CHO Chinese hamster ovary fibroblast line were grown at 37?C as monolayers, in Eagle's minimal essential medium supplemented with 10% calf serum. Cultures in glass Petri dishes were maintained in a humidified 5% C02 atmosphere. […] Cell growth was estimated on the basis of the nucleic-acid content (RNA+ DNA) of each culture, deter- mined 5 days after seeding, when controls became confluent. To this purpose nucleotides and nucleic acids were sequentially extracted by differential hydrolyses with perchloric acid (PCA): soluble nucleotides of the intracellular pool were extracted with 5% PCA at 4?C for 30 min, RNA was hydrolysed with 10%/ PCA at 37?C for 1 h, and DNA was hydrolysed with 10% PCA at 70?C for 2 h. Soluble nucleotides and RNA were measured by UV absorption at 260 nm, DNA was measured at 268 nm, with a Hitachi 200-20 double-beam spectrophotometer. In order to label nucleic acids, the cultures were incu- bated with tritiated nucleosides (Radio- chemical Centre, Amersham, England): thy- midine-6-H3 ([3H]-TdR; 2 Ci/mM) and uridine-5-H3 ([3H]-UR; 2-5 Ci/mM) were used at the concentration of 2 µCi/ml. After labelling, nucleotides and nucleic acids were extracted and determined as above, and the radioactivity of liquid samples (0-5 ml) of the different fractions was counted in a Packard Tri-Carb 2425 scintillation counter, using 10 ml of Bray's solution. As stated else- where (Levis et al., 1978a, b) the extraction procedure with PCA allows both quantitative determinations and radioactivity counting of different fractions (soluble nucleotides, RNA and DNA) obtained from the same culture. […] The medium was not changed until the 8th day, when the plates were stained with acetic gentian violet, and scored for survivors. All colonies visible to the naked eye were counted as survivors. Chromosome preparations.-Suspensions of CHO cells were prepared by trypsinization of log-phase cultures and diluted with growth medium in 100mm Petri plates. Each plate received about 8 x 10^5 cells in 10 ml of medium, which was changed 24 h after seeding. At this time 3 x 10^-5 M bromodeoxyuridine (BUdR, Sigma, St Louis, Mo., U.S.A.) was added and the cells were allowed to incor- porate the analogue for two division cycles (30 h). […] The medium was not changed until the cells were collected 30 h later. During the last 4 h of treatment, 0 4 Hg/ml of colchicine (Merck, Darmstadt, Germany) were added. At the end of treatment, metaphase cells were dislodged by gently pipetting the overlaying medium and collected by centrifuging the suspension at 900 rev/min for 5 min. The cell pellet was suspended in 5 ml hypotonic buffer (10% sodium citrate) at 37?C for 10 min and fixed in ethanol/acetic acid (3/1). Fixed cells were heated at 89?C for 10 min in IM NaH2PO4 (pH 8) and stained with Giemsa (Korenberg & Freedlender, 1974). […] Chromium compounds and cell treatments.- Hexavalent chromium (Cr6+) was tested as K2Cr207 (potassium dichromate), K2CrO4 (potassium chromate) and Na2CrO4.4H20 (sodium chromate) (Mallinckrodt, St Louis, Mo., U.S.A.), as Na2Cr2O7.2H20 (sodium dichromate) (Riedel De Haen, Hannover, Germany), as CrO3 (chromic acid) (Merck, Darmstadt, Germany), and as CaCrO4 (cal- cium chromate) (BDH, Poole, England).

CHO cells [2] = assay: CHO cell survival (macroscopic colonies); assay type: cell-based, Chinese hamster; details: seeded in presence of Cr, treated up to 8th day
Method: MATERIALS AND METHODS Cells.-Cultures of the established pseudo- diploid BHK21 Syrian hamster fibroblast line, and of the established pseudodiploid CHO Chinese hamster ovary fibroblast line were grown at 37?C as monolayers, in Eagle's minimal essential medium supplemented with 10% calf serum. Cultures in glass Petri dishes were maintained in a humidified 5% C02 atmosphere. […] Cell growth was estimated on the basis of the nucleic-acid content (RNA+ DNA) of each culture, deter- mined 5 days after seeding, when controls became confluent. […] Soluble nucleotides and RNA were measured by UV absorption at 260 nm, DNA was measured at 268 nm, with a Hitachi 200-20 double-beam spectrophotometer. […] After labelling, nucleotides and nucleic acids were extracted and determined as above, and the radioactivity of liquid samples (0-5 ml) of the different fractions was counted in a Packard Tri-Carb 2425 scintillation counter, using 10 ml of Bray's solution. As stated else- where (Levis et al., 1978a, b) the extraction procedure with PCA allows both quantitative determinations and radioactivity counting of different fractions (soluble nucleotides, RNA and DNA) obtained from the same culture. […] The medium was not changed until the 8th day, when the plates were stained with acetic gentian violet, and scored for survivors. All colonies visible to the naked eye were counted as survivors. […]

BHK cells = details: chronic exposure
Method: as §1

CHO cell cultures [3] = system: CHO cell cultures
Method: as §1

CHO cells [4] = details: 30 h, 1.0 ug/ml Cr6+
Method: as §1

With `[K+].[K+].[O]=[Cr](=[O])([O-])[O][Cr](=[O])(=[O])[O-]` [K2Cr2O7, potassium dichromate] the “Cell growth (%)” value (CHO cell cultures [1]) was 4%.

With `[O]=[Cr](=[O])=[O]` [CrO3, chromic acid] the “Cell growth (%)” value (CHO cell cultures [1]) was 2%.

In the case of `[Ca+2].[O]=[Cr](=[O])([O-])[O-]` [CaCrO4, calcium chromate], the “Cell growth (%)” value (CHO cell cultures [1]) is reported as 1% and the RNA/DNA (CHO cell cultures [1]) is reported as 4.8.

With `CC(=O)[O-].CC(=O)[O-].CC(=O)[O-].[Cr+3]` [Cr(COOCH3)3, chromium acetate] the “50% lethal dose (LD50)” value (CHO cells [2]) was 150 µg/mL, the “cytotoxic action on cell growth” value (BHK cells) was “weakly cytotoxic” and the “Cell growth (%)” value (CHO cell cultures [1]; 5 days in presence of compound, [Cr] 312.0 ug/ml) was 1%.

For `[Cl][Cr]([Cl])[Cl]` [CrCl3, chromium chloride], the “cytotoxic action on cell growth” value (BHK cells; even at 300 tg/ml Cr3+ (maximum solubility in complete growth medium)) was “little or no cytotoxic action” and the “Cell growth (%)” value (CHO cell cultures [1]; 5 days in presence of compound, [Cr] 262.0 ug/ml) was 61%.

With `O=S(=O)([O-])[O-].O=S(=O)([O-])[O-].[Cr+3].[K+]` [CrK(SO4)2, chromium potassium sulphate] the “cytotoxic action on cell growth” value (BHK cells) was “weakly cytotoxic”, the “Cell growth (%)” value (CHO cell cultures [1]; 5 days in presence of compound, [Cr] 209.0 ug/ml) was 62% and the RNA/DNA (CHO cell cultures [1]; 5 days, [Cr] 209.0 ug/ml) was 1-4.

With `[K+].[K+].[O]=[Cr](=[O])([O-])[O-]` [K2CrO4, potassium chromate] the “Sister chromatid exchanges per chromosome” value (CHO cell cultures [3]) was 0.50 + 0-01, the “Sister chromatid exchanges per metaphase” value (CHO cell cultures [3]) was 9-80 + 0-31 and the “Cell growth (%)” value (CHO cell cultures [1]) was 5%.

With `[Na+].[Na+].[O]=[Cr](=[O])([O-])[O-]` [Na2CrO4, sodium chromate] the “Sister chromatid exchanges per chromosome” value (CHO cell cultures [3]) was 059 + 0-20, the “Sister chromatid exchanges per metaphase” value (CHO cell cultures [3]) was 10-62 + 0-33 and the “Cell growth (%)” value (CHO cell cultures [1]) was 6%.

For `[Na+].[Na+].[O]=[Cr](=[O])([O-])[O][Cr](=[O])(=[O])[O-]` [Na2Cr2O7, sodium dichromate], the “increase of chromosome aberrations” value (CHO cells [4]) was “about 10 fold”, the “Cell growth (%)” value (CHO cell cultures [1]) was 3% and the RNA/DNA (CHO cell cultures [1]) was 6-9.
